Experimental findings from paper PMC13286573, “Exploration of precision coregulator TR-FRET identifies diverse signatures for LXR ligands relevant to discovery of nonlipogenic ABCA1 inducers” (eLife, 2026) are described below.

For one series, the target named is T1, LXRα (Homo sapiens, UniProt Q13133).
T1 sequence (Q13133 209-447 limits assumed): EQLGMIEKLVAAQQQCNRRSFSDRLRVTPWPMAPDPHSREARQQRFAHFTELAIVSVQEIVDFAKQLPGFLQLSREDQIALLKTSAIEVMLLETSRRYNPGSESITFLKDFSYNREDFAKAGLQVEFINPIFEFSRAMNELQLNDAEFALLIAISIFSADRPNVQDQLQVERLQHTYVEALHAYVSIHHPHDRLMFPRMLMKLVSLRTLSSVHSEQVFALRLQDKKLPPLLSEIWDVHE
Briefly: SRC-1 coactivator recruitment to LXRα, coregulator TR-FRET (CRT). Further details: The CRT selectivity assay incorporates GST-tagged LXR-LBD; purchased Thermo Fisher Scientific PV4657. The note with it: in the presence of 24HC (3 µM). Type of series: biochemical. On the technique in general: Time-resolved FRET reads energy transfer from a long-lived donor to a nearby acceptor.

Another series concerns LXR. Kind of series: Categorization of ligands by CRT/pCRT signature. Format: biochemical. The note with it: response at 1 µM ligand compared with theoretical signatures. The source says: With the knowledge that, in pCRT, corepressors bind to the apo-receptor; whereas coactivator binding requires a ligand-induced conformational change, we can categorize all ligands using their CRT profiles. Ligands induce three LXR conformational ensembles with CoR (destabilizing D, stabilizing S, neutral N) and only two conformations with CoA (stabilizing S, neutral N) (Figure 9 (Table 1)). In categorizing ligands based upon these CRT characteristics, labels are needed.
The category for each ligand is not always identical for LXRα vs. LXRβ. Similarly, the phenotype associated with each classification is isoform dependent. Recruitment of CoA to LXRβ by FA, WA, and PA will activate transcription; whereas, lack of recruitment by SA, HA, and RA will antagonize transcription (Figure 9 (Table 1)). Stabilization of CoA and/or destabilization of CoR bound to LXRα is a derepression mechanism leading to activation/transcription for FA, WA, and RA; whereas partial activation is expected for PA.
To determine which LXR ligands fit with these theoretical CRT signatures, concentration-response curves were interpolated to measure normalized response at 1 µM ligand concentration and plotted as a heat map (Figure 9A).

For the next series, the system named is HepG2 cells. Kind of series: Cell viability in HepG2 cells under SRE-luc conditions. Format: cell-based, human. The note with it: conditions of SRE-luc measurements. The source says:
Figure 5. Lipogenic response of HepG2 cells to treatment with liver X receptor (LXR) ligands. […] See Figure 3—figure supplement 1 for biological replicates. […] See Figure 5—figure supplement 1 for full concentration-response curves. Figure 5—figure supplement 1. Response of HepG2 cells to treatment with liver X receptor (LXR) ligands. (A–B) Lipogenic response of HepG2 cells to treatment with liver X receptor (LXR) ligands showing full concentration-response curves for biphenyl compounds shown in Figure 5E–F. (C) Cell viability in HepG2 cells under identical conditions to those used to obtain sterol response element (SRE)-luc data. [drawing 5]

For a further series, the target named is T2, LXRβ (Homo sapiens, UniProt P55055).
T2 sequence (P55055 222-460 limits assumed): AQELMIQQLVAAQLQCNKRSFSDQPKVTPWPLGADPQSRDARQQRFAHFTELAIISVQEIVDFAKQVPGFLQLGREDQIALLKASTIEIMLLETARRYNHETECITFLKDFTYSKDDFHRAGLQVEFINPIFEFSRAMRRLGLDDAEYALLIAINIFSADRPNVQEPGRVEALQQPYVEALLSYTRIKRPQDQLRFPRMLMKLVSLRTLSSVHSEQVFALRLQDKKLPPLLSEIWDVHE
Kind of series: SMRT2 corepressor binding to LXRβ, CRT. Also noted: The CRT selectivity assay incorporates GST-tagged LXR-LBD; purchased Thermo Fisher Scientific PV4660. Type of series: biochemical. The note with it: for activity at 1 µM: read-out: SMRT2β, relative % activity at 1 μM.

The test system of series [1] is sterol response element (SRE). Kind of series: SRE-luc reporter assay in HepG2 cells. Format: cell-based, human. In short, it runs like this:
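HepG2 cells stably carrying an SRE (LDLR) promoter–NlucP reporter, grown in medium with charcoal-stripped FBS. Treated with compounds for 24 hr at 37 °C, then lysed and nanoluciferase luminescence read.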

The next series concerns ABCA1. Briefly: ABCA1-luc reporter assay in CCF-STTG1 astrocytoma cells. Type of series: cell-based, human. The note with it: normalized to T0. The text has this: Astrocytoma CCF-STTG1 cells, stably transfected with an ABCA1-promoter linked to a luciferase response element, provide a model for ABCA1 induction in astrocytes ([Ben Aissa et al., 2021]). […] Apparent inverse agonist activity in cell-based assays can result from ‘true’ inverse agonist recruitment of corepressors or from antagonist activity towards endogenous sterol LXR agonists. Although we use serum-stripped media, antagonism of endogenous LXR agonists cannot be ruled out.
Low passage CCF-STTG1 cells (20,000 cells/well) were seeded in 96-well plates in media containing charcoal-stripped FBS and incubated at 37 °C and 5% CO2 for 24 hr prior to a 24 hr treatment. All compounds were dissolved in DMSO, and final DMSO concentrations never exceeded 1%. After a 24 hr incubation period, add a volume of ONE-GLOEX Reagent that is equal to the volume of culture medium in each well and incubate for 3–5 min on the shaker. The luminescent activity of compounds ([…], 10-fold dilution) was examined using the ONE-GLOEX assay (Promega). […] The assays were performed in duplicates for each concentration, and the EC50 values were determined from non-linear regression analysis of the dose-response curve generated in GraphPad Prism 9.
For orientation: A reporter such as luciferase makes a cellular process visible.

Entries after “also recorded” stand apart in the source; their conditions may differ.

In the case of `Cc1cc(C)c(S(=O)(=O)N(Cc2ccc(-c3cccc(S(C)(=O)=O)c3)cc2)Cc2ccc(C(F)(F)F)o2)c(C)c1` [GSK2033], the “Antagonism of 24HC agonism at LXRα (SRC-1 CRT)” value at LXRα is reported as “without effect on LXRα”. In addition, the CRT/pCRT signature category entry with LXR is “HA (hard antagonist (HA))”. Moreover, the HepG2 cell viability/cytotoxicity result in the series on HepG2 cells was “no loss of cell viability”. For the same compound, on LXRβ, the “Effect on SMRT2 binding to LXRβ” value is “selectively displace SMRT2 from LXRβ” and the activity at 1 µM is 93.4%. In series [1], the “SRE activation response/phenotype in HepG2” value is reported as “neutral or antagonist response”. Moreover, the “ABCA1 induction response/phenotype in CCF cells” value in the series on ABCA1 was “inverse agonist activity in cells”.

Take `CCOC(=O)c1ccc(CN(Cc2ccc(-c3cccc(S(C)(=O)=O)c3)cc2)S(=O)(=O)c2c(C)cc(C)cc2C)o1` [SR9238]: on LXRα, the “Antagonism of 24HC agonism at LXRα (SRC-1 CRT)” value was “without effect on LXRα”. The CRT/pCRT signature category entry in the series on LXR is “RA (reverse agonist (RA))”. Further, the HepG2 cell viability/cytotoxicity entry in the series with HepG2 cells is on record as “no loss of cell viability”. For the same compound, the activity at 1 µM on LXRβ was 69.2%. Besides, in series [1], the “SRE activation response/phenotype in HepG2” value was “lowered SRE activation below baseline; also recorded: neutral or antagonist response; also recorded: inverse agonist at <3 µM concentration”. In addition, the “ABCA1 induction response/phenotype in CCF cells” value with ABCA1 was “inverse agonist activity in cells”.
